Laboratory results taken from US8298781B2, “Compositions and methods for characterizing and regulating olfactory sensation” (Duke University, priority 2007, dated 2012).

Target: T1, OR7D4 S84N (Homo sapiens, UniProt Q8NG98, S84N)
T1 sequence (Q8NG98 1-312 S84N): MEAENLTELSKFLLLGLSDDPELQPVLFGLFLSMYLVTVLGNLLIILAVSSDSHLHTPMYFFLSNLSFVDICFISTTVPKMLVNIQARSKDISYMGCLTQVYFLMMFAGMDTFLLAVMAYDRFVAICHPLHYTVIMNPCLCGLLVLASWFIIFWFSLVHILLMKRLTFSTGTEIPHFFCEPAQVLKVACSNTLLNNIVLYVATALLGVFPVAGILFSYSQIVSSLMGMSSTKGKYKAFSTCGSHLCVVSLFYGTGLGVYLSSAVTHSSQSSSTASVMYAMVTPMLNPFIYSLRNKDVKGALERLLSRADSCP
Assay: Luciferase assay dose response, OR7D4 S84N
Format: cell-based
Settings: exceeding the activity of RT variant at every concentration tested
Text: Heterologous expression of human odorant receptors. 423 human odorant receptors including 337 predicted functional receptors were cloned. Odorant receptors that contained the first 20 amino acid of human rhodopsin (see, e.g., Krautwurst, D., et al., Cell 95, 917-926 (1998); herein incorporated by reference in its entirety) in pCl (Promega) were expressed in the Hana3A cell line along with a short form of mRTP1, RTP1S, (M37 to the C-terminal end), which enhanced functional expression of the odorant receptors. For immunocytochemistry, cells were fixed, permeabilized and incubated with monoclonal anti-rhodopsin antibody, 4D2 (see, e.g., Laird, D. W., et al., Invest Opthalmol Vis Sci 29.419428 (1988); herein incorporated by reference in its entirety), followed by Cy3-conjugated donkey anti-mouse IgG (Jackson Immunologicals). […]
Luciferase assay and data analysis. […] Luminescence was measured using Wallac Victor 1420 (Perkin-Elmer). Normalized luciferase activity was calculated by the formula [luc(N)-luc(lowest)]/luc(highest)/RL (N) where luc(N)=luminescence of luciferase of a certain well; luc(lowest)=lowest luminescence of luciferase of a plate or a set of plates; luc(highest)=highest luminescence of luciferase of a plate or a set of plates; RL(N)=luminescence of Renilla luciferase of a certain well. Data was analyzed with Microsoft Excel and GraphPad Prism 4.

Compound | dose-response sensitivity of OR7D4 S84N in vitro
C[C@@]12C=CC[C@H]1[C@@H]1CCC3=CC(=O)CC[C@]3(C)[C@H]1CC2 [androstadienone, androsta-4,16-dien-3-one] | remarkable sensitivity
C[C@]12CCC(=O)C[C@@H]1CC[C@@H]1[C@@H]2CC[C@]2(C)C=CC[C@@H]12 [androstenone, 5α-androst-16-en-3-one] | remarkable sensitivity
